Test results published in ChEMBL document CHEMBL1150568, “Briaexcavatolides K-N, new briarane diterpenes from the gorgonian Briareum excavatum” (2001).
Converted amounts (≈) assume the structure as drawn. The source made the active and inactive calls. The calls are words filed in the database; no cut-off is given here.

Tests used:
HT-29 = test: Cytotoxicity against human HT-29 cells by tetrazolium-based colorimetric assay; format: functional
A549 = test: Cytotoxicity against human A549 cells by tetrazolium-based colorimetric assay; format: functional, cell-based
P388 = test: Cytotoxicity against mouse P388 cells by tetrazolium-based colorimetric assay; format: functional; conditions: for EC50: read-out: ED50 (the source's name)

SMILES	Activity (HT-29)	Activity (A549)	Activity (P388)	EC50 (P388) [µg/mL]	EC50 (HT-29; read-out: ED50 (the source's name)) [µg/mL]
CC(=O)O[C@H]1C/C(C)=C\[C@@H]2OC(=O)[C@](C)(O)[C@]2(O)[C@H](OC(C)=O)[C@H]2[C@@H](C)[C@@H](O)C[C@H](OC(C)=O)[C@]2(C)[C@H]1OC(C)=O	inactive	inactive	inactive	–	–
CCCC(=O)O[C@H]1C/C(C)=C\[C@@H]2OC(=O)[C@](C)(O)[C@]2(O)[C@H](OC(C)=O)[C@H]2[C@@H](C)[C@@H](O)C[C@H](OC(C)=O)[C@]2(C)[C@H]1OC(C)=O [BRIAEXCAVATOLIDE L]	–	–	–	0.5 (≈ 0.816 µM)	–
CC(=O)O[C@@H]1[C@H](C)[C@@H]2[C@@H](OC(C)=O)[C@@]3(O)[C@H](/C=C(CCl)\C=C/[C@H](O)[C@@]2(C)[C@H]2O[C@@H]12)OC(=O)[C@@H]3C	inactive	inactive	inactive	–	–
CC(=O)O[C@@H]1[C@H](C)[C@@H]2[C@@H](OC(C)=O)[C@@]3(O)[C@H](/C=C(CO)\C=C/[C@H](O)[C@@]2(C)[C@H]2O[C@@H]12)OC(=O)[C@@H]3C	inactive	inactive	inactive	–	–
CC(=O)O[C@H]1CC/C(CO)=C\[C@@H]2OC(=O)[C@@]3(C)O[C@]23[C@H](O)[C@H]2[C@@H](C)[C@H](OC(C)=O)C=C[C@@]21C (relative stereo)	–	–	–	0.4 (≈ 0.861 µM)	1.1 (≈ 2.37 µM)
